Measured values published in patent publication US20190375778A1, “ADENOSINE DERIVATIVES FOR USE IN THE TREATMENT OF CANCER” (NuCana plc, priority 2016, published 2019).
pIC50: −log10 of the molar value.

Experiments:
Assay type in all cases: cell-based
Z138 = test: CellTiterGlo viability assay, Z138; settings: Homo sapiens, Z-138, 72 h, read-out: IC50 Z138
Description: (§1) In vitro viability assay were performed to assess the effects of compounds on cell viability in selected cell lines over ˜72 hrs using the CellTiterGlo (CTG, Promega-G7573) assay. The tests were performed in duplicates with treatment of compounds at 9 points, 3.16 folds titration in 96 well plates over ˜72 hrs. The compound starting concentrations were 198 μM. Cell viability assay using CellTiterGlo in 96-well plate were performed. Compound treatment 72 hrs, standard growth conditions, duplicates. Compounds were dissolved to 40 mM with thawed […]. Compounds were serially diluted at 3.16 fold in thawed DMSO, and warmed to 37° C. before being dissolved in media (2 μl+200 μl). After compounds were dissolved in media, media containing compounds were warmed to 37° C. in incubator and then compounds in media were added to cell plates (50 μl+50 μl) in duplicates. The compounds' final concentrations were from […] to 19.9 nM. All compound solubilities were checked and recorded again, then the plates were transferred to CO2 tissue culture incubator immediately and incubated for 3 days. DMSO final concentration is 0.5%.

RL = test: CellTiterGlo viability assay, RL; settings: Homo sapiens, RL, 72 h, read-out: IC50 RL
Procedure, shortened: (§2)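 Each cell line treated ~72 h under standard growth conditions, in duplicate, with 9-point 3.16-fold titrations; final concentrations from 198 μM down to 19.9 nM, 0.5% DMSO. Viability read by CellTiterGlo luminescence.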

K562 = test: CellTiterGlo viability assay, K562; settings: Homo sapiens, K562, 72 h, read-out: IC50 K562
Procedure, shortened: as §2

MiaPaCa-2 = test: CellTiterGlo viability assay, MiaPaCa-2; settings: Homo sapiens, MIA PaCa-2, 72 h, read-out: IC50 MiaPaCa-2
Description: as §1

MCF7 = test: CellTiterGlo viability assay, MCF7; settings: Homo sapiens, MCF7, 72 h, read-out: IC50 MCF7
Description: as §1

Murine leukemia L1210 = test: Cell proliferation (Coulter count) assay, L1210; settings: Mus musculus, 48 h, read-out: absolute IC50, L1210
Procedure, shortened: (§3)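 Cells grown in DMEM with 10% FBS. HeLa seeded at 10 000 cells/well, compound added after 24 h, counted day 5; L1210 and CEM seeded at 60 000 cells/well with compound, counted after 48 h and 72 h respectively. IC50 is concentration halving proliferation by Coulter count.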

human T-lymphocyte CEM = test: Cell proliferation (Coulter count) assay, CEM; settings: 72 h, read-out: absolute IC50, CEM
Procedure, shortened: as §3

Jurkat = test: CellTiterGlo viability assay, Jurkat; settings: Homo sapiens, 72 h, read-out: IC50 Jurkat
Description: as §1

HS445 = test: CellTiterGlo viability assay, HS445; settings: Hs 445, 72 h, read-out: IC50 HS445
Description: as §1

KG-1 = test: CellTiterGlo viability assay, KG-1; settings: Homo sapiens, KG-1, 72 h, read-out: IC50 KG-1
Procedure, shortened: as §2

NCI-H929 = test: CellTiterGlo viability assay, NCI-H929; settings: Homo sapiens, NCI-H929, 72 h, read-out: IC50 NCI-H929
Procedure, shortened: as §2

MV4-11 = test: CellTiterGlo viability assay, MV4-11; settings: Homo sapiens, MV4-11, 72 h, read-out: IC50 MV4-11
Procedure, shortened: as §2

SW620 = test: CellTiterGlo viability assay, SW620; settings: Homo sapiens, SW-620, 72 h, read-out: IC50 SW620
Description: as §1

SMILES: CCCCCOC(=O)[C@H](C)NP(=O)(OC[C@H]1O[C@@H](n2c(Cl)nc3c(N)ncnc32)C(O)C1O)Oc1cccc2ccccc12 (stereo partly drawn) [Compound E, (2S)-Pentyl 2-(((((2R,3S,4R,5R)-5-(6-amino-8-chloro-9H-purin-9-yl)-3,4-dihydroxy-tetrahydrofuran-2-yl)methoxnaphthalene-1-yloxy)phosphoryl)amino)propanoate]
- pIC50 (Z138): 5.30 to 7.00
- pIC50 (RL): 4.82 to 5.30
- pIC50 (K562): 5.30 to 7.00
- pIC50 (MiaPaCa-2): 5.30 to 7.00
- pIC50 (MCF7): 5.30 to 7.00
- pIC50 (Murine leukemia L1210): 4.82 to 5.30
- pIC50 (human T-lymphocyte CEM): 5.30 to 7.00
- pIC50 (Jurkat): 5.30 to 7.00
- pIC50 (HS445): 4.00 to 4.82
- pIC50 (KG-1): 5.30 to 7.00
- pIC50 (NCI-H929): 5.30 to 7.00
- pIC50 (MV4-11): 5.30 to 7.00
- pIC50 (SW620): 5.30 to 7.00

SMILES: CC(C)C[C@H](NP(=O)(OC[C@H]1O[C@@H](n2c(Cl)nc3c(N)ncnc32)C(O)C1O)Oc1ccccc1)C(=O)OCc1ccccc1 (stereo partly drawn) [V, 5′-([(Benzyloxy-L-leucin-N-yl)-phenyl]-phosphatyl) 8-chloroadenosine]
- pIC50 (Z138): 5.30 to 7.00
- pIC50 (RL): 4.00 to 4.82
- pIC50 (K562): 5.30 to 7.00
- pIC50 (MiaPaCa-2): 5.30 to 7.00
- pIC50 (MCF7): 5.30 to 7.00
- pIC50 (Murine leukemia L1210): 4.00 to 4.82
- pIC50 (Jurkat): 4.82 to 5.30
- pIC50 (HS445): 4.00 to 4.82
- pIC50 (KG-1): 4.82 to 5.30
- pIC50 (NCI-H929): 5.30 to 7.00
- pIC50 (MV4-11): 5.30 to 7.00
- pIC50 (SW620): 5.30 to 7.00

SMILES: C[C@H](NP(=O)(OC[C@H]1O[C@@H](n2c(Cl)nc3c(N)ncnc32)[C@H](O)[C@@H]1O)Oc1ccccc1)C(=O)OCc1ccccc1 (mixture of isomers) [C, (2S)-Benzyl 2-(((((2R,3S,4R,5R)-5-(6-amino-8-chloro-9H-purin-9-yl)-3,4-dihydroxy-tetrahydrofuran-2-yl)methoxy)(phenoxy)phosphoryl)amino)propanoate]
- pIC50 (Z138): 5.30 to 7.00
- pIC50 (RL): 4.00 to 4.82
- pIC50 (K562): 4.00 to 4.82
- pIC50 (MiaPaCa-2): 4.82 to 5.30
- pIC50 (MCF7): 4.00 to 4.82
- pIC50 (Murine leukemia L1210): 4.00 to 4.82
- pIC50 (human T-lymphocyte CEM): 4.00 to 4.82
- pIC50 (Jurkat): 4.00 to 4.82
- pIC50 (HS445): < 4.00
- pIC50 (KG-1): < 4.00
- pIC50 (NCI-H929): 4.82 to 5.30
- pIC50 (MV4-11): 5.30 to 7.00
- pIC50 (SW620): 4.00 to 4.82

SMILES: Nc1ncnc2c1nc(Cl)n2[C@@H]1O[C@H](COP(=O)(NCC(=O)OCc2ccccc2)Oc2ccccc2)[C@@H](O)[C@H]1O (mixture of isomers) [Compound B, Benzyl 2-(((((2R,3S,4R,5R)-5-(6-amino-8-chloro-9H-purin-9-yl)-3,4-dihydroxytetra-hydrofuran-2-yl)methoxy)(phenoxy)phosphoryl)amino)acetate]
- pIC50 (Z138): 5.30 to 7.00
- pIC50 (RL): 4.82 to 5.30
- pIC50 (K562): 5.30 to 7.00
- pIC50 (MiaPaCa-2): 5.30 to 7.00
- pIC50 (MCF7): 5.30 to 7.00
- pIC50 (Murine leukemia L1210): 4.82 to 5.30
- pIC50 (human T-lymphocyte CEM): 4.82 to 5.30
- pIC50 (Jurkat): 5.30 to 7.00
- pIC50 (HS445): 4.82 to 5.30
- pIC50 (KG-1): 5.30 to 7.00
- pIC50 (NCI-H929): 4.82 to 5.30
- pIC50 (MV4-11): 5.30 to 7.00
- pIC50 (SW620): 5.30 to 7.00
